One test deals with A375 cells. As to the kind of experiment: Proliferation assay (CyQuant Direct), A375 cells. Type of test: cell-based. The note with it: Homo sapiens, A-375; 72 hour incubation; read-out: GI50 antiproliferative effect on A375 cells. How it is done: (§1) Experimental Procedure of Proliferation Assay:
(§2) A375 and Calu6 cells are grown in RPMI1640, 10% FBS, in a humidified atmosphere of 5% CO2 at 37° C. Cells are seeded into flat bottom 96 well microtiter plates and incubated in a humidified atmosphere of 5% CO2 at 37° C. for 24 hours. Compounds are added, at the same time, a “time zero” untreated cell plate is stained and measured after 1 h. Compounds are serially diluted 5-fold from the highest test concentration (10 μM) and assayed over 8 concentrations in duplicates. The concentration of the solvent DMSO in the final culture is 0.1%. After a 72 hour incubation period, cells are stained with fluorescent nuclear dye to allow visualization of nuclei (CyQuant Direct Cell Proliferation Assay, Invitrogen Cat. No. C35012). Total fluorescence intensity of each well is measured using an Envision platform with excitation at 480 nm, emission detection at 535 nm. The assay signal correlates to the number of nuclei and thus, by definition, to the number of cells in the culture well (“cell count”).
(§3) The cell proliferation assay output for control cells after 72 hours of incubation, corresponding to 100% cell proliferation, is taken as the reference cell count for all subsequent calculations. Relative cell proliferation in compound-treated cultures (signal percent of control, “POC”) is calculated according to the following formula: POC(t=72 h)=100*fluorescence(compound wells)/fluorescence(control wells)
(§4) In addition, for each compound-treated culture, the cell count after incubation for 72 hours (POC(t=72h)) is related to the cell count at the start of treatment (POC(t=0 h)): POC(t=0 h)=100*fluorescence at t=0(control wells)/fluorescence at t=72 h(control wells)
(§5) The concentration-response curves were calculated using the dose-response package (drc versio 2.0-1 http://cran.rproject.org/web/packages/drc/index.html) from R (version 2.10.1 http://www.r-project.org/). […]
(§6) Relative cell growth inhibition (CGI %) in compound-treated cultures is calculated according to the following formula: […]

The test system of the next test is Calu6 cells. Nature of the test: Proliferation assay (CyQuant Direct), Calu6 cells. Type of test: cell-based. As to conditions: Homo sapiens, Calu-6; 72 hour incubation; read-out: GI50 antiproliferative effect on Calu6 cells. How it is done: as §1, §2, §3, §4, §5, §6

Broadly, the GI50 is the concentration at which growth is held to half of that of the control.

Take `CCNC(=O)C#Cc1ccc2c(c1)NC(=O)/C2=C(\Nc1ccc(CN(C)C)cc1)c1ccccc1` [Compound 6, 3-[3-[[4-(dimethylaminomethyl)anilino]-phenylmethylidene]-2-oxo-1H-indol-6-yl]-N-ethylprop-2-ynamide]: the GI50 in the test with A375 cells is 2.7 nM; with Calu6 cells, 7.66 nM.
In the same order, the values of `CCNC(=O)C#Cc1ccc2c(c1)NC(=O)/C2=C(\Nc1ccc(CNC)cc1)c1ccccc1` [Compound 26, 3-[3-[[4-(methylaminomethyl)anilino]-phenylmethylidene]-2-oxo-1H-indol-6-yl]-N-ethylprop-2-ynamide] are 3.37 nM and 7.82 nM.
In the same order, the values of `CCNC(=O)C#Cc1ccc2c(c1)NC(=O)/C2=C(\Nc1ccc(C[N+](C)(C)[O-])cc1)c1ccccc1` [Compound 27, 3-[3-[[4-(dimethyloxidoaminomethyl)anilino]-phenylmethylidene]-2-oxo-1H-indol-6-yl]-N-ethylprop-2-ynamide] are 17.3 nM and 11.3 nM.
